These results are taken from paper PMC8788362, “Rational design and synthesis of 2-(1H-indazol-6-yl)-1H-benzo[d]imidazole derivatives as inhibitors targeting FMS-like tyrosine kinase 3 (FLT3) and its mutants” (Journal of Enzyme Inhibition and Medicinal Chemistry, 2022).

For one series, the target named is T1, FLT3 (D835Y) (Homo sapiens, UniProt P36888, D835Y).
T1 construct: purchased Reaction Biology Corp. (Kinase HotSpot service)
T1 sequence (P36888 27-993 D835Y): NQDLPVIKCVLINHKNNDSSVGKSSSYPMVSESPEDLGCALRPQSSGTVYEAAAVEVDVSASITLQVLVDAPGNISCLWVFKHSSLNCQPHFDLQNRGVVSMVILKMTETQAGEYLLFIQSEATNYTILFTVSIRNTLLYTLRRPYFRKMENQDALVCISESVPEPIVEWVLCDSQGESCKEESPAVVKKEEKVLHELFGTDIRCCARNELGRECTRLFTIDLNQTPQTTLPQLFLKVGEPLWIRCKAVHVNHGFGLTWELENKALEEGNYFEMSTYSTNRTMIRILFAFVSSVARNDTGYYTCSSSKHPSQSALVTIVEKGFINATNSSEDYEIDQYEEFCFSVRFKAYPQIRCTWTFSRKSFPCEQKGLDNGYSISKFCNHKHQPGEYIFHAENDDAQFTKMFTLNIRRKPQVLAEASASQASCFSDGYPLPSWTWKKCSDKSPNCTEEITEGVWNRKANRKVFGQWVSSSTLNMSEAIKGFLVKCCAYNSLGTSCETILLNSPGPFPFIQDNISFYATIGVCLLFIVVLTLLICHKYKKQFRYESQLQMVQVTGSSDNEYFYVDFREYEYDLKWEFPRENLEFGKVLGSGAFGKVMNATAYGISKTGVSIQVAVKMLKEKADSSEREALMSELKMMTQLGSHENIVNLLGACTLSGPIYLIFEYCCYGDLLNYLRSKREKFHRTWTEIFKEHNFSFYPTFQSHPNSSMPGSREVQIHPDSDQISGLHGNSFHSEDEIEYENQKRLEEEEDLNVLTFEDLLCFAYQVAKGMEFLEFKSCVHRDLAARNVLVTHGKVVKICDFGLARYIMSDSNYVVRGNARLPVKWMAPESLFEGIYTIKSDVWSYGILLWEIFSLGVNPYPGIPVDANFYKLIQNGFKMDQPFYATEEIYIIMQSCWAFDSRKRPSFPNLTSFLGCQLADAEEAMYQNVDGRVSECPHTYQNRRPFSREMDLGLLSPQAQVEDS
The experiment in a line: Reaction Biology Kinase HotSpot radiometric kinase assay. Format: biochemical. From the text:
(§1) (specific activity approx. 500 cpm/pmol, concentration as required).

For a further series, the target named is T2, FLT3 wild type (Homo sapiens, UniProt P36888).
T2 construct: purchased Reaction Biology Corp. (Kinase HotSpot service)
T2 sequence (P36888 27-993): T1 sequence (P36888 27-993 D835Y) with Y809D
The description is as above. It is filed as biochemical. Conditions: ATP 10 µM.
From the text: as §1

Changes are numbered by the printed parent chain. “And” between values parts separate entries of the source, which are not always exact repeats. Equal values may be shown once. Read-outs that look alike come from different tables or passages of the source.

On to `CCN1CCN(c2cc(C(=O)Nc3ccc4[nH]c(-c5ccc6cn[nH]c6c5)nc4c3)cc(C(F)(F)F)c2)CC1(C)C` [8z, N-(2-(1H-Indazol-6-yl)-1H-benzo[d]imidazol-5-yl)-3–(4-ethyl-3,3-dimethylpiperazin-1-yl)-5-(trifluoromethyl)benzamide], for which the melting point lay in the range of 153 to 154 °C. Besides, the concentration for half-maximal inhibition (IC50) against FLT3 (D835Y) was determined as 46 nM. The IC50 at FLT3 wild type (read-out: FLT3 IC50) came to 66 nM. Moreover, the IC50 on FLT3 wild type (read-out: FLT3 wild type IC50) is 65.9 nM.

As to `CN1CCN(c2ccc(C(=O)Nc3ccc4[nH]c(-c5ccc6cn[nH]c6c5)nc4c3)cc2C(F)(F)F)CC1` [8e, N-(2-(1H-Indazol-6-yl)-1H-benzo[d]imidazol-5-yl)-4–(4-methylpiperazin-1-yl)-3-(trifluoromethyl)benzamide], the melting point was 160 to 161 °C. This compound returned an IC50 against FLT3 (D835Y) of 44 nM. For the same compound, the IC50 on FLT3 wild type (read-out: FLT3 IC50) was found to be 154 nM.

The compound `O=C(Nc1ccc2[nH]c(-c3ccc4cn[nH]c4c3)nc2c1)c1ccc(N2CCOCC2)c(C(F)(F)F)c1` [8f, N-(2-(1H-Indazol-6-yl)-1H-benzo[d]imidazol-5-yl)-4-morpholino-3-(trifluoromethyl)benzamide] had a melting point of 202 to 204 °C. This compound also returned an IC50 on FLT3 (D835Y) of 370 nM. The IC50 at FLT3 wild type (read-out: FLT3 IC50) was found to be 2510 nM.

In the case of `Cc1nccn1-c1cc(C(=O)Nc2ccc3[nH]c(-c4ccc5cn[nH]c5c4)nc3c2)cc(C(F)(F)F)c1` [8c, N-(2-(1H-Indazol-6-yl)-1H-benzo[d]imidazol-5-yl)-3–(2-methyl-1H-imidazol-1-yl)-5-(trifluoromethyl)benzamide], the melting point was in the range of 251 to 253 °C. On FLT3 (D835Y), this compound registered an IC50 of 108 nM. Further, the IC50 at FLT3 wild type (read-out: FLT3 IC50) amounted to 470 nM.

The compound `CN(C)C1CCN(c2cc(C(=O)Nc3ccc4[nH]c(-c5ccc6cn[nH]c6c5)nc4c3)cc(C(F)(F)F)c2)C1` (centres unmarked) [8n, N-(2-(1H-Indazol-6-yl)-1H-benzo[d]imidazol-5-yl)-3–(3-(dimethylamino)pyrrolidin-1-yl)-5-(trifluoromethyl)benzamide] yielded a melting point of 283 to 285 °C. Further, the IC50 against FLT3 (D835Y) was 113 nM. Besides, the IC50 at FLT3 wild type (read-out: FLT3 IC50) was found to be 287 nM.

The compound `O=C(Nc1ccc2[nH]c(-c3ccc4cn[nH]c4c3)nc2c1)c1cc(CN2CCN(C3CC3)CC2)cc(C(F)(F)F)c1` [8q, N-(2-(1H-Indazol-6-yl)-1H-benzo[d]imidazol-5-yl)-3-((4-cyclopropylpiperazin-1-yl)methyl)-5-(trifluoromethyl)benzamide] returned a melting point of 150 to 152 °C. This compound also displayed an IC50 at FLT3 (D835Y) of 174 nM. Also, the IC50 on FLT3 wild type (read-out: FLT3 IC50) came out at 525 nM.

`CN1CCCC(Nc2cc(C(=O)Nc3ccc4[nH]c(-c5ccc6cn[nH]c6c5)nc4c3)cc(C(F)(F)F)c2)C1` (centres unmarked) [8v, N-(2-(1H-Indazol-6-yl)-1H-benzo[d]imidazol-5-yl)-3-((1-methylpiperidin-3-yl)amino)-5-(trifluoromethyl)benzamide] yielded a melting point of 213 to 214 °C. In addition, the IC50 against FLT3 (D835Y) is 8.86 nM and 9 nM. Further, the “fold more potent against FLT3-D835Y than against wild-type FLT3” value at FLT3 (D835Y) (ratio of IC50 values) is given as 7- to 12 fold. At FLT3 wild type (read-out: FLT3 IC50), the IC50 was found to be 107 nM.
